According to ChEMBL document CHEMBL1201862, “PubChem BioAssay data set” (2004):
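48-hour exposure; five concentrations; linearly interpolated endpoints. GI50 is the concentration that inhibits growth by half.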 The source made the active and inactive calls. Rule as the data show it: active = GI50 up to about 1.1 µM and inactive = higher.

How the values were obtained:
Assay in all cases: inhibition of tumour cell growth, NCI panel, 48 h
SF-268 = test system: SF-268
HOP-62 = test system: HOP-62
HT-29 = test system: HT-29
Malme-3M = test system: Malme-3M
UACC-62 = test system: UACC-62
ACHN = test system: ACHN
OVCAR-3 = test system: OVCAR-3
DU-145 = test system: DU-145
SK-OV-3 = test system: SK-OV-3
HCT-116 = test system: HCT-116
M14 = test system: M14
U-251 = test system: U-251
SNB-75 = test system: SNB-75
HCT-15 = test system: HCT-15
NCI-H522 = test system: NCI-H522
LOX IMVI = test system: LOX IMVI
BT-549 = test system: BT-549
SK-MEL-28 = test system: SK-MEL-28
RXF 393 = test system: RXF 393
TK-10 = test system: TK-10
OVCAR-5 = test system: OVCAR-5
K562 = test system: K562
MDA-MB-435 = test system: MDA-MB-435
SW-620 = test system: SW-620
SF-295 = test system: SF-295
COLO 205 = test system: COLO 205
SN12C = test system: SN12C
NCI-H23 = test system: NCI-H23
RPMI-8226 = test system: RPMI-8226
OVCAR-4 = test system: OVCAR-4
SNB-19 = test system: SNB-19
UO-31 = test system: UO-31
NCI-H226 = test system: NCI-H226
EKVX = test system: EKVX
MDA-N = test system: MDA-N
HOP-92 = test system: HOP-92
UACC-257 = test system: UACC-257
CCRF-CEM = test system: CCRF-CEM
SF-539 = test system: SF-539
786-0 = test system: 786-0
SK-MEL-2 = test system: SK-MEL-2
MOLT-4 = test system: MOLT-4
OVCAR-8 = test system: OVCAR-8
A498 = test system: A498
NCI/ADR-RES = test system: NCI/ADR-RES
KM12 = test system: KM12
NCI-H460 = test system: NCI-H460
A549 = test system: A549
CAKI-1 = test system: CAKI-1
HL-60 = test system: HL-60
SK-MEL-5 = test system: SK-MEL-5
PC-3 = test system: PC-3
MDA-MB-231 = test system: MDA-MB-231
T47D = test system: T47D

SMILES: O=C1CC(c2ccc[nH]2)=NN1c1ccccc1
- GI50 (SF-268): > 100 µM (inactive)
- GI50 (HOP-62): > 100 µM (inactive)
- GI50 (HT-29): > 100 µM (inactive)
- GI50 (Malme-3M): > 100 µM (inactive)
- GI50 (UACC-62): > 100 µM (inactive)
- GI50 (ACHN): > 100 µM (inactive)
- GI50 (OVCAR-3): > 100 µM (inactive)
- GI50 (DU-145): > 100 µM (inactive)
- GI50 (SK-OV-3): > 100 µM (inactive)
- GI50 (HCT-116): > 100 µM (inactive)
- GI50 (M14): > 100 µM (inactive)
- GI50 (U-251): > 100 µM (inactive)
- GI50 (SNB-75): > 100 µM (inactive)
- GI50 (HCT-15): > 100 µM
- GI50 (NCI-H522): > 100 µM (inactive)
- GI50 (LOX IMVI): > 100 µM (inactive)
- GI50 (BT-549): > 100 µM (inactive)
- GI50 (SK-MEL-28): > 100 µM (inactive)
- GI50 (RXF 393): > 100 µM (inactive)
- GI50 (TK-10): > 100 µM (inactive)
- GI50 (OVCAR-5): > 100 µM (inactive)
- GI50 (K562): 73.5 µM (inactive)
- GI50 (MDA-MB-435): > 100 µM (inactive)
- GI50 (SW-620): > 100 µM (inactive)
- GI50 (SF-295): > 100 µM (inactive)
- GI50 (COLO 205): > 100 µM (inactive)
- GI50 (SN12C): > 100 µM (inactive)
- GI50 (NCI-H23): > 100 µM (inactive)
- GI50 (RPMI-8226): > 100 µM (inactive)
- GI50 (OVCAR-4): > 100 µM (inactive)
- GI50 (SNB-19): > 100 µM (inactive)
- GI50 (UO-31): > 100 µM (inactive)
- GI50 (NCI-H226): > 100 µM (inactive)
- GI50 (EKVX): > 100 µM (inactive)
- GI50 (MDA-N): > 100 µM (inactive)
- GI50 (HOP-92): > 100 µM (inactive)
- GI50 (UACC-257): > 100 µM (inactive)
- GI50 (CCRF-CEM): 88.5 µM (inactive)
- GI50 (SF-539): > 100 µM (inactive)
- GI50 (786-0): > 100 µM (inactive)
- GI50 (SK-MEL-2): > 100 µM (inactive)
- GI50 (MOLT-4): 27.8 µM (inactive)
- GI50 (OVCAR-8): > 100 µM (inactive)
- GI50 (A498): > 100 µM (inactive)
- GI50 (NCI/ADR-RES): > 100 µM (inactive)
- GI50 (KM12): > 100 µM (inactive)
- GI50 (NCI-H460): > 100 µM (inactive)
- GI50 (A549): > 100 µM (inactive)
- GI50 (CAKI-1): > 100 µM (inactive)
- GI50 (HL-60): > 100 µM (inactive)
- GI50 (SK-MEL-5): > 100 µM (inactive)
- GI50 (PC-3): > 100 µM (inactive)
- GI50 (MDA-MB-231): > 100 µM (inactive)
- GI50 (T47D): > 100 µM (inactive)
